# Data from patent EP4512806A1, “MOLECULAR GLUE DEGRADERS AND USES THEREOF” (Mablink Bioscience, priority 2023, dated 2025).
# Legend:
# [1] = test system: 340 protein kinases; experiment: Kinase screening assay (radiometric 33PanQinase ActivityAssay); format: biochemical, human; settings: final compound concentration of 10 µM; most inhibited kinases belong to CMGC family, particularly CDK; 23 out of the 30 most inhibited were CDK/Cyclin complexes
# Procedure: Compound 2384 according to the disclosure was subjected to kinase screening assays (performed at Reaction Biology, Germany). The screening assay was performed at a final compound concentration of 10 µM. A radiometric protein kinase assay (33PanQinase® ActivityAssay) was used for measuring the kinase activity of 340 protein kinases. All kinase assays were performed in 96-well FlashPlates™ from Perkin Elmer (Boston, MA, USA) in a 50 µL reaction volume. […] All PKC assays (except the PKC-mu and the PKC-nu assay) additionally contained 1 mM CaCl2, 4 mM EDTA, 5 µg/ml Phosphatidylserine and 1 µg/ml 1,2-Dioleyl-glycerol. The CAMK1D, CAMK2A, CAMK2B, CAMK2D, CAMK2G, CAMK4, CAMKK1, CAMKK2, DAPK2, EEF2K, MYLK, MYLK2 and MYLK3 assays additionally contained 1 µg/ml Calmodulin and 0.5 mM CaCl2. The PRKG1 and PRKG2 assays additionally contained 1 µM cGMP. The DNA-PK assay additionally contained 2.5 µg/ml DNA. The protein kinase reaction cocktails were incubated at 30°C for 60 minutes. The reaction was stopped with 50 µl of 2 % (v/v) H3PO4, plates were aspirated and washed two times with 200 µL 0.9 % (w/v) NaCl. Incorporation of 33Pi (counting of "cpm") was determined with a microplate scintillation counter (Microbeta, Wallac). All protein kinase assays were performed with a BeckmanCoulter Biomek 2000/SL robotic system. […]
# [2] = biological target: T1, CycK (Homo sapiens, UniProt O75909); experiment: CycK protein quantification by Western Blot in JIMT-1 cells; format: cell-based
# T1 construct: endogenous in cells; host or cells: JIMT-1
# Procedure: 1×10^6 JIMT-1 cells were plated in 3mL of DMEM/FBS 90:10 (v/v) in 6-well plates and incubated overnight. Cells were treated with the compound 2384 of the invention with or without the proteasome inhibitor MG-132 (MedChemExpress, Cat HY-13259) for 2h. Cells were harvested, and protein were extracted using complete RIPA buffer (RIPA buffer, 1 mM DTT, 1M NaF, 100 mM sodium orthovanadate, phosphatase inhibitor buffer and protease inhibitors) for 1 hour on ice. Lysate were centrifuged 15min at 12 000g at 4°C. and proteins were mixed with 4x Laemmli Sample Buffer (Bio-Rad), heated at 95 °C for 5 mins and separated by SDS PAGE (PROTEAN TGX Stain-Free Gels, Bio-Rad). Proteins were then transferred onto PVDF membrane (iBlot®2 PVDF stacks, Invitrogen) using the iBlot2 device (Invitrogen) and blocked with TBS buffer (Intercept® Blocking Buffer, LI-COR Biosciences). Primary antibodies were incubated overnight at 4°C and secondary antibodies (IRDye Infrared Dyes from LI-COR Biosciences) 1 hour at room temperature. Used primary antibody were: anti-CycK (cat#A301-939A, Bethyl Laboratories, dil. 1:1000) and anti-β-actin (cat#A5441, Sigma-Aldrich, dil. 1:5000). Membranes were scanned using a c500 Imaging System (Azure Biosystems) and densitometric quantification were performed using imaged software. Protein levels were normalized against β-actin.
# [3] = test system: Cyclin K; experiment: CycK mRNA RT-qPCR in JIMT-1 cells; format: cell-based, human; settings: 1µM final concentration, 2h
# Procedure: 1×10^6 JIMT-1 cells were plated in 3mL of DMEM/FBS 90:10 (v/v) in 6-well plates and incubated overnight. Cells were treated with the compound 2384 of the invention, with CR8 (a known molecular glue degrader that depletes CycK) or with the proteasome inhibitor MG-132 (MedChemExpress, Cat HY-13259) for 2h. RNA was extracted using the QIAamp RNeasy Mini Kit (cat#74106, Qiagen) according to the manufacturer's protocol. Reverse transcription was performed using SuperScripr™ IV reverse transcriptase (cat#LT02241, Invitrogen). Quantitative PCR was performed using a No ROX Sybr Master Mix in the LightCycler 480 Real-Time PCR system (Roche Life Science).
# Cyclin K forward ([…]) and reverse ([…]) primers were purchased from Eurogentec. Gene expression was normalized using ribosomal 28S as the housekeeping gene.
# [4] = test system: panel of human cancer cell lines; experiment: In vitro cytotoxicity assay (MTT), panel of cell lines; format: cell-based
# Excerpt: Human cancer cell lines used in the present project were purchased from either the American Type Culture Collection (ATCC), The Leibniz Institute DSMZ German Collection of Microorganisms and Cell Cultures GmbH (DSMZ) or the European Collection of Authenticated Cell Cultures (ECACC). For use in experiments, cells were cultivated following good and established cell culture practices, following instructions from the original ATCC/DSMZ/ECACC supplier for cell culture media & supplement, cryopreservation, and subculturing procedures. Cells were incubated under a 5% CO2 atmosphere at 37°C for no longer than 2 months.
# In vitro cytotoxicity of compounds of the disclosure was assessed on several cancerous human cell lines. Cells were plated in 96-well plates at an appropriate density depending on the cell line (between 1000 and 10 000 cells/well in 100µL of appropriate culture media) and incubated at 37°C for 24 hours. Serial dilutions of the tested compound previously dissolved in culture media (50µL) were added, and incubation was carried at 37°C out for 6 days. MTT (5mg/mL in PBS, 20µL, Sigma-Aldrich) was added into the wells, and incubation was continued for 1 to 4 hours at 37°C. Culture media was then carefully removed, and well content was homogeneously dissolved with acidified isopropanol. Absorbance values were measured on a microplate reader using a wavelength of 570 nm (with a reference wavelength of 690 nm). The IC50 concentration values compared to untreated control cells were determined using inhibition dose response curve fitting (GraphPad Prism 9). Exatecan mesylate (cat#HY-13631A) and CR8 (CAS# 294646-77-8; cat#HY-18340) were purchased from MedChemExpress (China).
# T1 sequence (O75909 whole entry): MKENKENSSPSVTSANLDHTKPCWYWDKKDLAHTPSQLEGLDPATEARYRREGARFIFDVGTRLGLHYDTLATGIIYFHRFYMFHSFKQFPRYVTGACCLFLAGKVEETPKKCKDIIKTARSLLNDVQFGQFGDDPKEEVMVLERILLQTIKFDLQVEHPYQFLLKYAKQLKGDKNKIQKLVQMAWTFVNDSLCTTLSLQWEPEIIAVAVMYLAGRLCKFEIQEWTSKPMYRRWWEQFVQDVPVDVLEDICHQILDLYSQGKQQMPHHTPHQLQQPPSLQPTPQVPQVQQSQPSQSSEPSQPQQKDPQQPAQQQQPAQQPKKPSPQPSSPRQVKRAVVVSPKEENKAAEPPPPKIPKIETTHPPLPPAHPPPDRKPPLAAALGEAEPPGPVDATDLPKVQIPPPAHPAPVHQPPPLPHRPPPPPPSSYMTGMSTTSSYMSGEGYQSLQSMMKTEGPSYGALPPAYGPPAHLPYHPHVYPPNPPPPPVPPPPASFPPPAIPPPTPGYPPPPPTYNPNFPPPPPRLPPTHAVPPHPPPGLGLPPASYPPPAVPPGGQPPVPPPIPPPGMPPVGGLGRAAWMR
# T1 sequence (Q9NYV4 whole entry partner): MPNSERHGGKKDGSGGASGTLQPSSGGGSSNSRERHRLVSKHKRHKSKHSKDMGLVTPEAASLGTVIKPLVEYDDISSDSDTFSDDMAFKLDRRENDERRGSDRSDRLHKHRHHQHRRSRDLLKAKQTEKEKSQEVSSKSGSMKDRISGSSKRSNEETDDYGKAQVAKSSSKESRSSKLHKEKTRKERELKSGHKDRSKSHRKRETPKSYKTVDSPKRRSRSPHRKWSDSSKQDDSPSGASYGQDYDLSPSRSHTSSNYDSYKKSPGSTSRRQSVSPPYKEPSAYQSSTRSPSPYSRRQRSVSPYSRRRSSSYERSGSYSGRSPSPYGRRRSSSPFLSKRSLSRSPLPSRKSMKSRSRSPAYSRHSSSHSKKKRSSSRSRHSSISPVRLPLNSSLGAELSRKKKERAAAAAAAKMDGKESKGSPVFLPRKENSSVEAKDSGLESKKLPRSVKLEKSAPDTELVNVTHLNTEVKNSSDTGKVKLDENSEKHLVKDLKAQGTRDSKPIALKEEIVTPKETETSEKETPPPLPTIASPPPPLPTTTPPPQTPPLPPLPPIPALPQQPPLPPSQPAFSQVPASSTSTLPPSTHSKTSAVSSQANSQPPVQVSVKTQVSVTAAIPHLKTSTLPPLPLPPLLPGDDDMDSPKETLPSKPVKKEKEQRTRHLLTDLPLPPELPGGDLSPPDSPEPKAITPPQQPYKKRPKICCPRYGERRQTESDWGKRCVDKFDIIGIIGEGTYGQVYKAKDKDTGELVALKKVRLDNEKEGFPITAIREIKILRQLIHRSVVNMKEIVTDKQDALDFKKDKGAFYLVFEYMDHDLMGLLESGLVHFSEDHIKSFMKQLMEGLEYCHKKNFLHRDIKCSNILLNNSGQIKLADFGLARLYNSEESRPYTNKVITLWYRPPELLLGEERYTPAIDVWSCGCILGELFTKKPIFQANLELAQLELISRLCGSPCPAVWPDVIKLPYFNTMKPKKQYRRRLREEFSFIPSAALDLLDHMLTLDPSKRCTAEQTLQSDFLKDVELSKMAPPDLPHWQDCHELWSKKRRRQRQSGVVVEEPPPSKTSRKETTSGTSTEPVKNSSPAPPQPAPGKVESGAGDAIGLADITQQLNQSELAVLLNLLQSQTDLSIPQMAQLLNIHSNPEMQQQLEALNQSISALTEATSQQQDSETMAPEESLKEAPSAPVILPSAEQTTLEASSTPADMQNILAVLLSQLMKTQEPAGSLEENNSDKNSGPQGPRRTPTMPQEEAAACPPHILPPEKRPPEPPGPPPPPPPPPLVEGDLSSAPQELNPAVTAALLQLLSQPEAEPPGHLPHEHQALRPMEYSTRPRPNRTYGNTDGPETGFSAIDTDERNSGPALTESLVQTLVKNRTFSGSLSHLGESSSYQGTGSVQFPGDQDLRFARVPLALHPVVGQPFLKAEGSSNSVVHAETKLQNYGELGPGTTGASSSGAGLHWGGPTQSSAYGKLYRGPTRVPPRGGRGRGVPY
# T1 sequence (Q16531 whole entry partner): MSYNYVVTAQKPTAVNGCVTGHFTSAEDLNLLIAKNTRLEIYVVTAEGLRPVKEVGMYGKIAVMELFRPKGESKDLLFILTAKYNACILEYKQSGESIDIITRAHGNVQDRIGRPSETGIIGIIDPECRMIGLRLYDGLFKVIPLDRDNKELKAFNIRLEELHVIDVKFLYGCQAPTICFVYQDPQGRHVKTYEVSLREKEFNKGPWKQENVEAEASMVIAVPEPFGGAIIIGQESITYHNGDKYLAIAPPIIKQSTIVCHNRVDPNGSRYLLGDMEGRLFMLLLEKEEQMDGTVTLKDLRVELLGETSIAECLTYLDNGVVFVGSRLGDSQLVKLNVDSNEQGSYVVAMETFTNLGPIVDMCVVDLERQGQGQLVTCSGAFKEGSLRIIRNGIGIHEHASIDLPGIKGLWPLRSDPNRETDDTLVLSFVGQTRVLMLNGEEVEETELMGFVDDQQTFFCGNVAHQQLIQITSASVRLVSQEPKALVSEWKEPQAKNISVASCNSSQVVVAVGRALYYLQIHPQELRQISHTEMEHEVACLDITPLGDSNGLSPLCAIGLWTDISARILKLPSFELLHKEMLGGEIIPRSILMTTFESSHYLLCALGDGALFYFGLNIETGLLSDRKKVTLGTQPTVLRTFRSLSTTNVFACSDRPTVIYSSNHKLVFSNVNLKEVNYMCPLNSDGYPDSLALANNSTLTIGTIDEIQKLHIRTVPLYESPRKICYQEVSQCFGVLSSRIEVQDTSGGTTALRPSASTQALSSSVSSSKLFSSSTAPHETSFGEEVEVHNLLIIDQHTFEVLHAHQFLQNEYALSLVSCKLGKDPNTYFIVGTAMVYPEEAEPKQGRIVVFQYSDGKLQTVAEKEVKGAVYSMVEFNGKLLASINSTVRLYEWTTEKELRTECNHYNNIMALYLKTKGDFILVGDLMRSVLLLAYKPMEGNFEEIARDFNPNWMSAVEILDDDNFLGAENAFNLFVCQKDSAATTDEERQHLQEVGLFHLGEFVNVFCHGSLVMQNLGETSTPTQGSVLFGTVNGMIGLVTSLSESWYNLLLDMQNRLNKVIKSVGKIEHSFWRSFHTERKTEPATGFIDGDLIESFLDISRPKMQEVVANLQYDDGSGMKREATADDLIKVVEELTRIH
compound,measurement,setting,value
N[C@H]1CC[C@H](Nc2nc(NCc3ccc(-c4ccccn4)cc3)n3ncc(Br)c3n2)CC1 [Compound 2384],inhibition of most inhibited kinases,[1],more than 90%
same,CycK protein content,"[2]; 1µM final concentration, 2h",decreased CycK protein content
same,"minimum effective dose for CycK degradation, times lower than that of CR8",[2]; 2h treatment,approximately 10 times
same,concentration inducing complete CycK degradation,"[2]; 2h treatment, decreasing doses",10 nM
same,CycK mRNA level,[3],not at the CycK mRNA level
same,in vitro cytotoxic potency,"[4]; panel of human cancer cell lines, in words",low nanomolar potencies
same,cytotoxic potency compared to isopropyl counterpart,"[4]; side-by-side comparison, Figures 1A/1B and 2A/2B",systematically more potent
